In a melting point compilation (Tetko et al.; mined from patent text by program, amines drawn as free bases though some values may be those of a salt):

Row | SMILES | melting point [°C]
1 | Cc1nc(-c2ccc(-c3cc(C(F)(F)F)nn3-c3ccc(S(C)(=O)=O)c(F)c3)cc2)cs1 | 139 to 141
2 | CC(C)(C)OC(=O)[C@H]1CCCN1CC(=O)N1CCC[C@@H]1C(=O)OC(C)(C)C | 75 to 76
3 | CN(Cc1ccccc1)Cc1c(-c2ccccc2)sc(N)c1C(=O)c1ccc(Cl)cc1 | 86 to 88
4 | COC(=O)CCCc1cc2nc(Cl)ccc2n1S(=O)(=O)c1ccc(-c2nccs2)cc1 | 101
5 | CCCNC(=O)N1C2=NC(C)(C)N(CCC)C(=O)N2c2ccccc21 | 72 to 74
6 | O=C(Cc1ccc(O)cc1)NC1CCN(Cc2ccc(Cl)c(Cl)c2)CC1 | 72 to 97
7 | O=c1cc(-c2ccccc2)c2c([nH]1)CCCC2 | 285 to 288
8 | C=CCN1C(C)(C)CC(O)CC1(C)C | 84 to 85
9 | CN1C(=O)CC(c2ccc(O)cc2)C1C(O)c1ccc(-c2ccccc2)s1 (stereo not drawn) | 248 to 249
10 | Cn1cc([N+](=O)[O-])nc1C(Cl)Cl | 153
11 | CC1C(=O)N(c2ccc(F)cc2)C(=S)N1c1ccc(Oc2ccccc2)cc1 (stereo not drawn) | 150
12 | Cc1cc2nc(C)c(=O)[nH]c2cc1C | 306 to 308
13 | CCOC(=O)CN(CC(=O)OCC)C(=O)C(CCC(=O)O)CS(=O)(=O)c1ccc2ccccc2c1 (stereo not drawn) | 108 to 111
14 | O=[N+]([O-])c1ccccc1OCc1ccc2ccccc2n1 | 121 to 122
15 | [N-]=[N+]=NC1(c2nc(N)nc(N)n2)C=CC(c2ccccc2)=CC1 (stereo not drawn) | 230
16 | CCCCCCCCc1ccc(C(O)CC(CO)(CO)NC(C)=O)cc1 (stereo not drawn) | 118 to 119
17 | COc1ccc(/C(=C\C=C\C(=O)O)c2cccnc2)cc1 | 235 to 238
18 | Cc1noc(-c2cccc(CN3CCN(c4ccc(NC(=O)c5cccc(C)c5-c5ccc(C(C)C)cc5)cc4)CC3)c2)n1 | 74
19 | ON=Cc1ccc(-c2ccc(O)cc2)cc1 | 207 to 210
20 | Nc1c2c(=O)[nH]c(C(F)(F)F)nc2nn1-c1ccccc1 | 267 to 269
21 | CCCc1nn(C)c2c(=O)[nH]c(-c3cc(S(=O)(=O)N4CCN(C)CC4)ccc3O)nc12 | 283 to 284
22 | CC(=O)OCC(CCn1cnc2c(Cl)nc(N)nc21)COC(C)=O | 135 to 137
23 | CCN(CC)c1ccc2nc3c4ccccc4c(=Nc4cc(C)on4)cc-3oc2c1 | 195 to 196
24 | CC1(C)C(=O)C(c2cc(F)cc(F)c2)=C1c1ccc(S(C)(=O)=O)cc1 | 113 to 114
25 | O=c1c2cccnc2c(-c2cccc([N+](=O)[O-])c2)nn1-c1ccccc1 | 167

Row | SMILES | melting point [°C]
26 | CCn1cc(Nc2nc(-c3cccc(N4Cc5cc(C(C)(C)C)ccc5C4=O)c3CO)cn(C)c2=O)cn1 | 138 to 140
27 | CC[C@@H]1NC(=O)C(F)(F)[C@@H]1O | 118 to 121
28 | CCCCCCCCN(C)C(=O)CC(=O)N(C)CCCCCCCC | 41
29 | CC(C)(C(=O)c1ccccc1)n1cncn1 | 134 to 135
30 | CC(O)c1cncc(C2(O)CCN(CC34CC(c5ccccc53)c3ccccc34)CC2)c1 (stereo not drawn) | 177 to 183
31 | CC1=NN(c2cc(Cl)c(C(=O)c3ccc(Cl)cc3)c(Cl)c2)C(=O)NC1 | 257 to 259
32 | CCc1cc(=O)n(C)c2c1C(=O)CCC2 | 65 to 70
33 | O=C(Cc1ccc(OCc2ccccc2)cc1)Nc1c(C(=O)O)oc2cc(-c3ccc(Cl)cc3)ccc12 | 211 to 212
34 | O=[N+]([O-])c1cc(SC(F)(F)F)[nH]c1-c1ccc(Cl)cc1 | 143 to 145
35 | CCCCC[C@@H](CNC(=O)Nc1c(N2CCCC2)ncnc1N1CCCC1)c1cccc2c1OCO2 | 199 to 200
36 | Cc1cc(F)c(F)c(C=O)c1O | 53 to 56
37 | OCC(O)(Cn1cncn1)c1ccc(F)cc1F (stereo not drawn) | 99 to 100
38 | CCCc1[nH]c(C)c(C(C)=O)c1C | 157 to 158
39 | O=C(O)c1ccc(S(=O)(=O)Nc2cc3c4c(c2)CCCC4CCC3)cc1 | 266 to 268
40 | COc1ccc(-c2cc3cc(F)c(F)cc3[nH]2)cc1NS(=O)(=O)c1cccc(C#N)c1 | 239 to 242
41 | CS(=O)(=O)Cc1cc(C(=O)C=O)ccc1OCc1ccccc1 | 108 to 110
42 | CCn1c(=O)[nH]c2cnc(-c3ccccc3)nc21 | 268 to 270
43 | C#Cc1cc2c(Nc3ccc4c(cnn4Cc4ccccc4)c3)ncnc2s1 | 195
44 | COc1ccccc1NC(=O)Nc1nc(Nc2ccccc2-c2ccccc2)nc(N(CCC(=O)O)Cc2ccc(-c3ccccc3)cc2)n1 | 144 to 147
45 | CN(C)CCOc1ccc([C@H]2C[C@]3(C)C(=O)CC[C@H]3[C@@H]3CCc4c(ccc(O)c4Cl)[C@H]32)cc1 | 254
46 | Nc1ccc(C(F)(F)F)cc1S(N)(=O)=O | 142 to 143
47 | O=C(O)C=Cc1cccc(OCc2nc(-c3ccccc3)c(-c3ccccc3)o2)c1 | 145 to 147
48 | COc1ccc(C(=O)N(c2ccccc2)c2ccc(OCCCN(C)C)cc2)cc1 | 111 to 115
49 | COc1ccc(-n2nc(C(F)(F)F)nc2-c2ccc(S(N)(=O)=O)cc2)cc1 | 228
50 | COc1nc(-c2ccccc2)c2c(n1)N(c1ccccc1)C(=O)NC2 | 220 to 222

Row | SMILES | melting point [°C]
51 | COc1cc(Nc2c(C#N)cnc3cc(-c4csc(CN5CCOCC5)c4)sc23)c(Cl)cc1Cl | 209 to 212
52 | O=C1CSc2cc(C(O)(C(F)(F)F)C(F)(F)F)ccc2N1 | 230 to 232
53 | COc1ccc(-c2noc(C(F)F)c2-c2ccc(S(N)(=O)=O)cc2)cc1F | 188 to 190
54 | COc1cc(Nc2nc3cccc(-c4ccc(S(=O)(=O)N5CCOCC5)cc4)c3o2)cc(OC)c1OC | 201 to 203
55 | CN(C)/N=C(/C(=O)O)c1ccc(OCCOc2ccc3ccccc3c2)cc1 | 135
56 | COc1c(C)c(C(=O)c2ccc3nc(C)[nH]c(=O)c3c2)n2ccccc12 | 290
57 | O=C1CN(c2ccc(I)cc2)S(=O)(=O)N1 | 191 to 193
58 | COC(CCc1cc(C(F)(F)F)cc(C(F)(F)F)c1)C(Cc1csc2ccccc12)NC(C)=O (stereo not drawn) | 120 to 121
59 | C=Cn1nc(-c2ccc(OC)cc2)cc(C(=O)NC)c1=O | 130 to 133
60 | CCN(CC)CCNC(=O)c1ccc(Nc2nccc(-c3cccnc3)n2)cc1 | 148 to 150
61 | CCOC(=O)c1ccc([N+](=O)[O-])c(O)c1Br | 58 to 61
62 | CSC1=NC2=NC3=C(CN(Cc4ccccc4)CC3=O)CN2N1 | 245 to 247
63 | CCOC(=O)CSc1nc(N)cc(Cl)n1 | 113 to 116
64 | CN1C(=O)N(CC(=O)COC(C)(C)C)C(=O)C1(C)C | 61 to 63
65 | Cn1nnc(-c2cn(C)c3ccccc3c2=O)n1 | 189 to 192
66 | CCCCCC1(O)CCC2(C)C(CCC3C4CCC(C5(C)OCCO5)C4(C)CC(=O)C32)C1 (stereo not drawn) | 106
67 | CC1(C)CCSc2cc(C(=O)Nc3ccc(C(=O)O)cc3)ccc21 | 274 to 276
68 | COc1ccc(C(=O)Nc2ccc(C(C)=O)cc2)cc1 | 222 to 223
69 | COc1ccc(-c2nc(-c3ccc4oc(=O)[nH]c4c3)cs2)cc1OC | 271 to 272
70 | CC(=O)c1ccc(-c2c(C)c(NC(=O)CC(C)(C)C)c(C)c3c2OCC3c2ccc(C(C)C)cc2)s1 (stereo not drawn) | 157 to 158
71 | CCCC1=C(C#N)C(c2ccccc2Cl)c2c(n[nH]c2-c2ccco2)N1 (stereo not drawn) | 253
72 | Cc1cccc(C(=O)Nc2cn(C3CCCCO3)nc2C(=O)NCCC#N)n1 (stereo not drawn) | 186 to 187
73 | COCc1cc(OC)c(-c2ccc(C[C@H](NC(=O)c3c(Cl)cccc3Cl)C(=O)O)cc2)c(OC)c1 | 232 to 235
74 | COc1cccc(-c2c(/C=C/C(=O)NCCCCc3cccnc3)ccc3ccc(OC)cc23)c1 | 108 to 110
75 | CC#CCOc1ccc(S(=O)(=O)N(C)C(C(=O)NO)C(C)(C)SCCn2ccnc2)cc1 (stereo not drawn) | 97 to 100

Row | SMILES | melting point [°C]
76 | COc1ccc(Nc2ncc3cc(-c4c(Cl)cccc4Cl)c(=O)n(C)c3n2)cc1C | 218 to 220
77 | CC(C)(C)CC(C)(CO)C(=O)O (stereo not drawn) | 96.5 to 100
78 | COCCc1nc2c(N)nc(C)c(C)c2n1NC1CCOCC1 | 110 to 120
79 | O=C(OCc1ccc([N+](=O)[O-])cc1)OCc1ccc([N+](=O)[O-])cc1 | 156 to 158
80 | CO[C@@H](Cc1ccc(OCCc2nc(-c3ccc(-c4ccccc4)cc3)oc2C)c2ccccc12)C(=O)O | 156 to 159
81 | CC(C)[C@H](NC(=O)OCc1ccccn1)C(=O)N[C@@H](Cc1ccccc1)C[C@H](O)[C@H](Cc1ccccc1)NC(=O)OCc1cccnc1 | 172 to 174
82 | CCOc1c(CC)ccnc1C(=O)c1[nH]c2cc(Cl)ccc2c1CC(=O)O | 165
83 | CS(=O)(=O)c1ccc(-c2cc(COCCO)nn2CC2CCCCC2)cc1 | 73 to 75
84 | CCCc1c(OCCCSc2ccc(C(=O)O)cn2)ccc(C(C)=O)c1O | 145 to 147
85 | COc1nc(C)cnc1NS(=O)(=O)c1cccnc1-c1ccc(C(C)C)cc1 | 74 to 75
86 | CC(=O)NNc1ccc([N+](=O)[O-])cn1 | 226 to 227
87 | CC(C)(CNS(=O)(=O)C(F)(F)F)Cn1c(=O)c2cccc3ncc(c1=O)n32 | 196 to 198
88 | COc1cc(OC)c2c(=O)[nH]c(-c3ccc(OCCNC(C)C)c(-c4cccc(S(C)=O)c4)n3)nc2c1 (stereo not drawn) | 156 to 157
89 | COc1ccc2ncc(CO)cc2c1 | 92 to 93
90 | COc1ccc(F)cc1OCCN1C(=O)c2ccccc2C1=O | 134 to 136
91 | Nc1ncccc1C(=O)NCC1CCN(C[C@H]2COc3cccc(Cl)c3O2)CC1 | 62 to 70
92 | Clc1ccccc1N=Nc1ncc[nH]1 | 173 to 177
93 | CN(C#N)C(=O)CCC(=O)N(C)C#N | 112 to 114
94 | O=C1Nc2cccnc2N(C(=O)CN2CCN(CCN3CCOCC3)CC2)c2ccccc21 | 227 to 229
95 | CCCCCCCCCCCCCCCCCCOCC(Br)COCCCCCCCCCCCCCCCCCC | 47.9 to 48.7
96 | Cc1cc(-c2cc(C(F)(F)F)n3ncc(-c4nc(-c5cnc(N)nc5)no4)c3n2)ccc1C(F)(F)F | 272
97 | CC(C)(C)c1ccc(C(=O)Nc2cn3cc(-c4cn[nH]c4)ccc3n2)cc1 | 278 to 280
98 | COC(=O)C1CSc2sccc2C1=O (stereo not drawn) | 94 to 97
